In PubChem BioAssay (NCI):
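Method: 48-hour compound exposure of cells in 96-well plates, five concentrations, linear interpolation of endpoints. GI50: concentration for 50% inhibition of growth. TGI: total growth inhibition.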 Where a SMILES comes first, the peptide text is derived from it. [ ]: non-standard residue; d: D form. The star is where a group is joined. ξ: configuration not given here. X6 = FC(F)(F)c1cc(NC(=S)*)cc(C(F)(F)F)c1; ξF = NC(Cc1ccccc1)C(=O)O

tested on: MOLT-4 leukemia; assay: NCI anticancer screen, dose series, 48 h

Which GI50 does the source give for `OCc1ccc(N2CCC2c2ccc(F)cc2)cc1Cl` (centres undefined) here?
The GI50 was 25 µM.

What about the TGI of the same compound?
The TGI was 64.6 µM.

How did the TGI turn out when `COC(=O)c1cc2c(n1S(=O)(=O)c1ccc(C)cc1)C(=O)C(=O)c1[nH]cc(C(=O)OCc3ccccc3)c1-2` was run?
Its TGI is 0.944 µM.

With `O=C(Nc1ccccc1OC(F)(F)F)Nc1n[nH]c2ccccc12` as the compound, how does the GI50 read?
Its GI50 is 5.91 µM.

And the TGI?
Its TGI is over 100 µM.

Which GI50 does the source give for `COC(=O)[C@@H](NC(=O)CNC(=O)[C@H]1CCCN1C(=O)C(Cc1ccccc1)NC(=S)Nc1cc(C(F)(F)F)cc(C(F)(F)F)c1)C(C)C` (some centres undefined) (X6-[ξF][dP]GV-OMe) here?
The GI50 was 2.28 µM.

What about the TGI of the same compound?
The TGI was 6.07 µM.

tested on: MALME-3M melanoma; assay: NCI anticancer screen, dose series, 48 h

Which GI50 does the source give for `OCc1ccc(N2CCC2c2ccc(F)cc2)cc1Cl` (centres undefined) here?
Its GI50 is 29.4 µM.

And the TGI?
Its TGI is over 66.1 µM.

With `COC(=O)c1cc2c(n1S(=O)(=O)c1ccc(C)cc1)C(=O)C(=O)c1[nH]cc(C(=O)OCc3ccccc3)c1-2` as the compound, how does the TGI read?
The TGI was 0.115 µM.

Which results are given for `O=C(Nc1ccccc1OC(F)(F)F)Nc1n[nH]c2ccccc12`?
GI50: 76.8 µM; TGI: > 100 µM

For `COC(=O)[C@@H](NC(=O)CNC(=O)[C@H]1CCCN1C(=O)C(Cc1ccccc1)NC(=S)Nc1cc(C(F)(F)F)cc(C(F)(F)F)c1)C(C)C` (some centres undefined) (X6-[ξF][dP]GV-OMe), which GI50 is on record?
Its GI50 is 3.88 µM.

What about the TGI of the same compound?
The TGI was 15.1 µM.

tested on: CAKI-1 renal; assay: NCI anticancer screen, dose series, 48 h

How did the GI50 turn out when `OCc1ccc(N2CCC2c2ccc(F)cc2)cc1Cl` (centres undefined) was run?
Its GI50 is 12.9 µM.

What about the TGI of the same compound?
The TGI was over 57.1 µM.

With `COC(=O)c1cc2c(n1S(=O)(=O)c1ccc(C)cc1)C(=O)C(=O)c1[nH]cc(C(=O)OCc3ccccc3)c1-2` as the compound, how does the TGI read?
The TGI was 1.28 µM.

Which GI50 does the source give for `O=C(Nc1ccccc1OC(F)(F)F)Nc1n[nH]c2ccccc12` here?
Its GI50 is 31 µM.

And the TGI?
The TGI was over 100 µM.

What does the source list for `COC(=O)[C@@H](NC(=O)CNC(=O)[C@H]1CCCN1C(=O)C(Cc1ccccc1)NC(=S)Nc1cc(C(F)(F)F)cc(C(F)(F)F)c1)C(C)C` (some centres undefined) (X6-[ξF][dP]GV-OMe)?
GI50: 2.71 µM; TGI: 10.5 µM

tested on: SW-620 colon; assay: NCI anticancer screen, dose series, 48 h

`OCc1ccc(N2CCC2c2ccc(F)cc2)cc1Cl` (centres undefined) was tested. Which GI50 did it give?
Its GI50 is 4.93 µM.

What about the TGI of the same compound?
Its TGI is over 100 µM.

Which TGI does the source give for `COC(=O)c1cc2c(n1S(=O)(=O)c1ccc(C)cc1)C(=O)C(=O)c1[nH]cc(C(=O)OCc3ccccc3)c1-2` here?
Its TGI is 0.174 µM.

With `O=C(Nc1ccccc1OC(F)(F)F)Nc1n[nH]c2ccccc12` as the compound, how does the GI50 read?
Its GI50 is 36.8 µM.

And the TGI?
Its TGI is over 100 µM.

`COC(=O)[C@@H](NC(=O)CNC(=O)[C@H]1CCCN1C(=O)C(Cc1ccccc1)NC(=S)Nc1cc(C(F)(F)F)cc(C(F)(F)F)c1)C(C)C` (some centres undefined) (X6-[ξF][dP]GV-OMe) was tested. Which GI50 did it give?
Its GI50 is 3.72 µM.

What about the TGI of the same compound?
The TGI was 24.5 µM.

tested on: NCI/ADR-RES ovarian; assay: NCI anticancer screen, dose series, 48 h

Which GI50 does the source give for `OCc1ccc(N2CCC2c2ccc(F)cc2)cc1Cl` (centres undefined) here?
The GI50 was 23.7 µM.

And the TGI?
The TGI was over 88.8 µM.

With `COC(=O)c1cc2c(n1S(=O)(=O)c1ccc(C)cc1)C(=O)C(=O)c1[nH]cc(C(=O)OCc3ccccc3)c1-2` as the compound, how does the TGI read?
The TGI was 5.26 µM.

`O=C(Nc1ccccc1OC(F)(F)F)Nc1n[nH]c2ccccc12` was tested. Which GI50 did it give?
The GI50 was 44.2 µM.

What about the TGI of the same compound?
Its TGI is over 100 µM.

With `COC(=O)[C@@H](NC(=O)CNC(=O)[C@H]1CCCN1C(=O)C(Cc1ccccc1)NC(=S)Nc1cc(C(F)(F)F)cc(C(F)(F)F)c1)C(C)C` (some centres undefined) (X6-[ξF][dP]GV-OMe) as the compound, how does the GI50 read?
Its GI50 is 3.47 µM.

And the TGI?
The TGI was 43.3 µM.

tested on: BT-549 breast; assay: NCI anticancer screen, dose series, 48 h

What does the source list for `OCc1ccc(N2CCC2c2ccc(F)cc2)cc1Cl` (centres undefined)?
GI50: 21.2 µM; TGI: 49.9 µM

Which TGI does the source give for `COC(=O)c1cc2c(n1S(=O)(=O)c1ccc(C)cc1)C(=O)C(=O)c1[nH]cc(C(=O)OCc3ccccc3)c1-2` here?
The TGI was 0.334 µM.

What does the source list for `O=C(Nc1ccccc1OC(F)(F)F)Nc1n[nH]c2ccccc12`?
GI50: 76.4 µM; TGI: > 100 µM

`COC(=O)[C@@H](NC(=O)CNC(=O)[C@H]1CCCN1C(=O)C(Cc1ccccc1)NC(=S)Nc1cc(C(F)(F)F)cc(C(F)(F)F)c1)C(C)C` (some centres undefined) (X6-[ξF][dP]GV-OMe) was tested. Which GI50 did it give?
The GI50 was 1.85 µM.

And the TGI?
The TGI was 3.78 µM.

tested on: K-562 leukemia; assay: NCI anticancer screen, dose series, 48 h

With `OCc1ccc(N2CCC2c2ccc(F)cc2)cc1Cl` (centres undefined) as the compound, how does the GI50 read?
The GI50 was 6.66 µM.

What about the TGI of the same compound?
The TGI was 58.6 µM.

Which TGI does the source give for `COC(=O)c1cc2c(n1S(=O)(=O)c1ccc(C)cc1)C(=O)C(=O)c1[nH]cc(C(=O)OCc3ccccc3)c1-2` here?
The TGI was over 100 µM.

`O=C(Nc1ccccc1OC(F)(F)F)Nc1n[nH]c2ccccc12` was tested. Which GI50 did it give?
Its GI50 is 47.2 µM.

And the TGI?
The TGI was over 100 µM.

With `COC(=O)[C@@H](NC(=O)CNC(=O)[C@H]1CCCN1C(=O)C(Cc1ccccc1)NC(=S)Nc1cc(C(F)(F)F)cc(C(F)(F)F)c1)C(C)C` (some centres undefined) (X6-[ξF][dP]GV-OMe) as the compound, how does the GI50 read?
Its GI50 is 3.27 µM.

What about the TGI of the same compound?
Its TGI is 30.1 µM.
